The subject of the experiment is AI-2 quorum sensing mechanism. Description: Inhibition of AI-2 quorum sensing, bioluminescence of Vibrio harveyi BB170 after reaction with Vibrio harveyi BB152 samples. Type of experiment: cell-based. To be noted: farnesol 800 μM on Vibrio harveyi BB152, reaction for 90 minutes, versus no farnesol (Control). The text has this:
The effect of inhibition of quorum sensing for certain microorganisms (bacteria) for water treatment by farnesol secreted by the biofilm formation-inhibiting microorganisms, i.e., Candida albicans is thought to be attributed to the inhibition of quorum sensing mechanism using AI-2 signal molecules, which was indirectly assessed by means of Vibrio harveyi BB152, a bacteria producing only AI-2, and Vibrio harveyi BB170, bacteria allowing bioluminescence by specifically accepting only AI-2. Particularly, Vibrio harveyi BB152 producing only AI-2 signal molecules was inoculated in an AB medium (Autoinducer Bioassay medium, Tega et al., 2011) and cultivated to a certain degree of optical density (O.D.600) of 0.1-0.3. Farnesol was injected to attain final concentration of 800 μM (and no farnesol was injected for its comparison), each sample was taken after reaction for 90 minutes, and the each sample was reacted with Vibrio harveyi BB170 to measure bioluminescence. As a result, the bioluminescence of Vibrio harveyi BB170 was decreased by about 42 percents for the case of […] (designated as “Control”) when compared to the case of injecting the farnesol (see FIG. 18).

Turning to `CC(C)=CCCC(C)=CCCC(C)=CCO` [Farnesol, farnesol], the “decrease of bioluminescence of Vibrio harveyi BB170” value is “about 42 percents”.

Source of the values: patent publication US20180028982A1, “CONTAINER WITH BIOFILM FORMATION-INHIBITING MICROORGANISMS IMMOBILIZED THEREIN AND MEMBRANE WATER TREATMENT APPARATUS USING THE SAME” (SNU R&DB FOUNDATION, priority 2010, published 2018).
